One data set deals with plasma protein. Kind of data set: Determination of plasma protein binding (rapid equilibrium dialysis). Format: in vitro ADME. The conditions noted are these: 4 hours at 37° C. The source says:
Determination of Plasma Protein Binding
The pharmacokinetic and pharmacodynamic properties of chemicals/drugs are largely a function of the reversible binding of chemicals to plasma or serum proteins. Generally, only the unbound or “free fraction” of a drug is available for diffusion or transport across cell membranes, and for interaction with a pharmacological/toxicological target. Consequently, the extent of the plasma protein binding (PPB) of a compound influences its action as well as its distribution and elimination.
The determination of plasma protein binding (PPB) of a compound is enabled by equilibrium dialysis, an accepted and standard method for reliable estimation of the non-bound drug fraction in plasma. RED (Rapid Equilibrium Dialysis) device insert is made of two side-by-side chambers separated by an O-ring-sealed vertical cylinder of dialysis membrane (MWCO˜8,000). Plasma containing drug (at 5 μM or blood concentrations otherwise corresponding to efficacious doses, if known) is added to one chamber while buffer is added to the second. After 4 hours incubation at 37° C. under shaking, an aliquot is removed from each chamber and analyzed by a LC-MS/MS procedure enables the determination of both free and bound drug.
The percentages provided in Table 4 represent for the compounds of the invention the bound drug fraction to the plasma protein. The “free fraction” may be calculated as 100%−% rPPB (i.e. the complementary percentage of that disclosed in Table 4, corresponding to the drug concentration that is unbound and therefore available to engage biological target and elicit pharmacological activity).

Data set [1] deals with T1, human NK-3 receptor (Homo sapiens (Human), UniProt P29371). Kind of data set: 3H-SB222200 binding competition assay with human NK-3 receptor. As to the method: The affinity of compounds of the invention for the human NK-3 receptor was determined by measuring the ability of compounds of the invention to competitively and reversibly displace a well-characterized NK-3 radioligand in a concentration-dependent manner.
^3H-SB222200 Binding Competition Assay with Human NK-3 Receptor
The ability of compounds of the invention to inhibit the binding of the NK-3 receptor selective antagonist ^3H-SB222200 was assessed by an in vitro radioligand binding assay. Membranes were prepared from Chinese hamster ovary recombinant cells stably expressing the human NK-3 receptor. The membranes were incubated with 5 nM ^3H-SB222200 (ARC) in a HEPES 25 mM/NaCl 0.1M/CaCl2 1 mM/MgCl2 5 mM/BSA 0.5%/Saponin 10 μg/ml buffer at pH 7.4 and various concentrations of compounds of the invention. The amount of ^3H-SB222200 bound to the receptor was determined after filtration by the quantification of membrane associated radioactivity using the TopCount-NXT reader (Packard).

The next data set has as its target human NK-2 receptor (Homo sapiens (Human), UniProt P21452). Kind of data set: Selectivity binding assay, human NK-2 ([125I]-Neurokinin A). Particulars: CHO cell membranes; 0.1 nM [125I]-Neurokinin A; read-out: hNK-2 (Ki). As for the experimental part:
(§1) Selectivity of the compounds of the invention was determined over the other human NK receptors, namely NK-1 and NK-2 receptors.
The affinity of compounds of the invention for the NK-2 receptor was evaluated in CHO recombinant cells which express the human NK-2 receptor. Membrane suspensions were prepared from these cells. The following radioligand [^125I]-Neurokinin A (PerkinElmer Cat#NEX252) was used in this assay. Binding assays were performed in a 25 mM HEPES/1 mM CaCl2/5 mM MgCl2/0.5% BSA/10 μg/ml saponin, at pH 7.4. Binding assays consisted of 25 μl of membrane suspension (approximately 3.75 μg of protein/well in a 96 well plate), 50 μl of compound or reference ligand (Neurokinin A) at increasing concentrations (diluted in assay buffer) and 0.1 nM [^125I]-Neurokinin A. The plate was incubated 60 min at 25° C. in a water bath and then filtered over GF/C filters (Perkin Elmer, 6005174, presoaked in assay buffer without saponine for 2 h at room temperature) with a Filtration unit (Perkin Elmer). The radioactivity retained on the filters was measured by using the TopCount-NXT reader (Packard). Competition curves were obtained for compounds of the invention and the concentrations of compounds which displaced 50% of bound radioligand (IC50) were determined and then apparent inhibition constant Ki values were calculated by the following equation: Ki=IC50/(1+[L]/KD) where [L] is the concentration of free radioligand and KD is its dissociation constant at the receptor, derived from saturation binding experiments (Cheng and Prusoff, 1973).

The target in another data set is human NK-1 receptor (Homo sapiens (Human), UniProt P25103). Kind of data set: Selectivity binding assay, human NK-1 ([3H] substance P). Particulars: CHO cell membranes; 2 nM [3H] substance P; read-out: hNK-1 (Ki). As for the experimental part: as §1
The affinity of compounds of the invention for the NK-1 receptor was evaluated in CHO recombinant cells which express the human NK-1 receptor. Membrane suspensions were prepared from these cells. The following radioligand: [^3H] substance P (PerkinElmer Cat#NET111520) was used in this assay. Binding assays were performed in a 50 mM Tris/5 mM MnCl2/150 mM NaCl/0.1% BSA at pH 7.4. Binding assays consisted of 25 μl of membrane suspension (approximately 5 μg of protein/well in a 96 well plate), 50 μl of compound or reference ligand (Substance P) at increasing concentrations (diluted in assay buffer) and 2 nM [^3H] substance P. The plate was incubated 60 min at 25° C. in a water bath and then filtered over GF/C filters (Perkin Elmer, 6005174, presoaked in 0.5% PEI for 2 h at room temperature) with a Filtration unit (Perkin Elmer). The radioactivity retained on the filters was measured by using the TopCount-NXT reader (Packard). Competition curves were obtained for compounds of the invention and the concentrations of compounds which displaced 50% of bound radioligand (IC50) were determined and then apparent inhibition constant Ki values were calculated by the following equation: Ki=IC50/(1+[L]/KD) where [L] is the concentration of free radioligand and KD is its dissociation constant at the receptor, derived from saturation binding experiments (Cheng and Prusoff, 1973).

Data set [2] deals with T1, human NK-3 receptor. Kind of data set: Aequorin functional assay with human NK-3 receptor (antagonist testing). Format: cell-based. Particulars: CHO cells expressing human NK-3 receptor; agonist NKA at EC80 (3 nM); read-out: Functional assay: Aequorin assay with human NK-3 receptor hNK-3 - AEQ (antagonist IC50). As to the method: Aequorin Assay with Human NK-3 Receptor
Changes in intracellular calcium levels are a recognized indicator of G protein-coupled receptor activity. The efficacy of compounds of the invention to inhibit NKA-mediated NK-3 receptor activation was assessed by an in vitro Aequorin functional assay. Chinese Hamster Ovary recombinant cells expressing the human NK-3 receptor and a construct that encodes the photoproteinapoaequorin were used for this assay. In the presence of the cofactor coelenterazine, apoaequorin emits a measurable luminescence that is proportional to the amount of intracellular (cytoplasmic) free calcium.
The antagonist activity of compounds of the invention is measured following pre-incubation (3 minutes) of the compound (at various concentrations) with the cells, followed by addition of the reference agonist (NKA) at a final concentration equivalent to the EC80 (3 nM) and recording of emitted light (FDSS 6000 Hamamatsu) over the subsequent 90-second period. The intensity of the emitted light is integrated using the reader software. Compound antagonist activity is measured based on the concentration-dependent inhibition of the luminescence response to the addition of Neurokinin A.
The IC50 values shown in Table 2 indicate that compounds of the invention are potent NK-3 antagonist compounds.

[3] abbreviates: CHO cell membranes, 5 nM 3H-SB222200, Table 2, read-out: Competitive binding assay with human NK-3 receptor hNK-3 (Ki).
Setting [4] is: Table 3 (selectivity table), read-out: hNK-3 (Ki).

Like-named read-outs stand apart in the source and are kept apart here. Some results are limits rather than exact numbers.

Chain of human NK-2 receptor (P21452 whole entry): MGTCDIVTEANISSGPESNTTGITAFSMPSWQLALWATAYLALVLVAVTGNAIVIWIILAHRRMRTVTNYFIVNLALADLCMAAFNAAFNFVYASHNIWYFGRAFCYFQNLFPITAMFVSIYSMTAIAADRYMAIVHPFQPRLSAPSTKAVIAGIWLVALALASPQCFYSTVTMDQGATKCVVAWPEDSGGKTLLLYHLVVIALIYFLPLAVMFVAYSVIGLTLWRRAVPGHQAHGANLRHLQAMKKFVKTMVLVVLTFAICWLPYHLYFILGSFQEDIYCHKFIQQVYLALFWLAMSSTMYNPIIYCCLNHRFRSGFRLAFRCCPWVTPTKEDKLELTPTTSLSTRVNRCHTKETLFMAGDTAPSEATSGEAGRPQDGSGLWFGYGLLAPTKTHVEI
T1 sequence (P29371 whole entry): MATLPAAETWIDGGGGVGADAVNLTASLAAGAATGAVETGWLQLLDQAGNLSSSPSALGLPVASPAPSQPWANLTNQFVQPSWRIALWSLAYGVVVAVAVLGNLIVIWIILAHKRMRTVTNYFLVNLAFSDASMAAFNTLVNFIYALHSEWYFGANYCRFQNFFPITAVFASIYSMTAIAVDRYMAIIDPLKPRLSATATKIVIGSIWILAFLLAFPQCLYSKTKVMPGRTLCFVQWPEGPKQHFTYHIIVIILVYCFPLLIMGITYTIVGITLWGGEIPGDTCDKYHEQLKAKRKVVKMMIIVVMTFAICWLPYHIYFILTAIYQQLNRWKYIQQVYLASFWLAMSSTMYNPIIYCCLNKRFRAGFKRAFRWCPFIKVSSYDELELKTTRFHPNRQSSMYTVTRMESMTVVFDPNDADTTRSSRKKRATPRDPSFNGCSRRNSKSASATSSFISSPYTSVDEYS
Chain of human NK-1 receptor (P25103 whole entry): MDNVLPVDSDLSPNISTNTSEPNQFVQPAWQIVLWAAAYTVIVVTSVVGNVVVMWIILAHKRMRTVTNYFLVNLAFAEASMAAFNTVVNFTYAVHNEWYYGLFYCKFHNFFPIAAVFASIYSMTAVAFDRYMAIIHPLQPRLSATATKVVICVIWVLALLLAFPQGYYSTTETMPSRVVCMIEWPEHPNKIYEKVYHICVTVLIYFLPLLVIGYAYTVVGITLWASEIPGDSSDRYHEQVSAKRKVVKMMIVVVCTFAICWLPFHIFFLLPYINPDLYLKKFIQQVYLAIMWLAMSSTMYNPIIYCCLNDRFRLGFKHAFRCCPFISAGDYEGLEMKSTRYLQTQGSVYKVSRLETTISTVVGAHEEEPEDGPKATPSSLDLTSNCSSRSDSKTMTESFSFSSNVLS

What is called Ki is a dissociation constant, usually derived from enzyme kinetics or from competition with a known ligand. Usually IC50 stands for the midpoint of a concentration-inhibition curve. Turning to `Cc1ccc(-c2nnc3n2CCN(C(=O)c2cc(F)c(F)c(F)c2)[C@@H]3C)o1` [Compound 7, (R)-(8-methyl-3-(5-methylfuran-2-yl)-5,6-dihydro-[1,2,4]triazolo[4,3-a]pyrazin-7(8H)-yl)(3,4,5-trifluorophenyl)methanone], in the data set on plasma protein, the “Exposure (% rPPB), bound drug fraction to the plasma protein” value (shortened to “Exposure (% rPPB), bound drug fraction”) stood at 26%. The Ki worked out at 33 nM at human NK-3 receptor [1] (setting [3]), 33 nM on human NK-3 receptor [1] (setting [4]), 21000 nM on human NK-2 receptor and 27000 nM on human NK-1 receptor. The IC50 at human NK-3 receptor [2] came to 57 nM.

As to `Cc1ccc(-c2nnc3n2CCN(C(=O)c2ccc(F)c(F)c2F)[C@@H]3C)o1` [Compound 6, (R)-(8-methyl-3-(5-methylfuran-2-yl)-5,6-dihydro-[1,2,4]triazolo[4,3-a]pyrazin-7(8H)-yl)(2,3,4-trifluorophenyl)methanone], in the data set with plasma protein, the “Exposure (% rPPB), bound drug fraction” value is 37%. The inhibition constant (Ki) on human NK-3 receptor [1] (setting [3]) was 74 nM; at human NK-3 receptor [1] (setting [4]) it was 74 nM; at human NK-2 receptor, more than 30000 nM; on human NK-1 receptor it was more than 30000 nM. Moreover, on human NK-3 receptor [2], the IC50 turned out to be 99 nM.

In the case of `Cc1ccc(-c2nnc3n2CCN(C(=O)c2ccc(Cl)c(F)c2)[C@@H]3C)o1` [Compound 9, (R)-(4-chloro-3-fluorophenyl)(8-methyl-3-(5-methylfuran-2-yl)-5,6-dihydro-[1,2,4]triazolo[4,3-a]pyrazin-7(8H)-yl)methanone], the “Exposure (% rPPB), bound drug fraction” value with plasma protein came to 68%. The Ki at human NK-3 receptor [1] (setting [3]) was determined as 38 nM; at human NK-3 receptor [1] (setting [4]) it was 38 nM; on human NK-2 receptor, 14000 nM; at human NK-1 receptor, 13000 nM. The IC50 on human NK-3 receptor [2] is 53 nM.

In the case of `C[C@@H]1c2nnc(-c3csc(C(F)(F)F)n3)n2CCN1C(=O)c1ccc(Cl)c(F)c1` [Compound 17, (R)-(4-chloro-3-fluorophenyl)(8-methyl-3-(2-(trifluoromethyl)thiazol-4-yl)-5,6-dihydro-[1,2,4]triazolo[4,3-a]pyrazin-7(8H)-yl)methanone], the “Exposure (% rPPB), bound drug fraction” value in the data set with plasma protein was found to be 84%. The inhibitory constant (Ki) was determined as 22 nM on human NK-3 receptor [1] (setting [3]), 22 nM on human NK-3 receptor [1] (setting [4]), 5200 nM on human NK-2 receptor and 12000 nM on human NK-1 receptor. For the same molecule, at human NK-3 receptor [2], the 50% inhibitory concentration (IC50) stood at 37 nM.

For the molecule `C[C@@H]1c2nnc(-c3csc(C(F)(F)F)n3)n2CCN1C(=O)c1cc(F)c(F)c(F)c1F` [Compound 12, (R)-(8-methyl-3-(2-(trifluoromethyl)thiazol-4-yl)-5,6-dihydro-[1,2,4]triazolo[4,3-a]pyrazin-7(8H)-yl)(2,3,4,5-tetrafluorophenyl)methanone], the “Exposure (% rPPB), bound drug fraction” value in the data set on plasma protein is given as 67%. Besides, the Ki on human NK-3 receptor [1] (setting [3]) was 29 nM; at human NK-3 receptor [1] (setting [4]), 29 nM; at human NK-2 receptor it was 4700 nM; at human NK-1 receptor, 19000 nM. In addition, the IC50 at human NK-3 receptor [2] amounted to 33 nM.

Consider `Cc1ccc(-c2nnc3n2CCN(C(=O)c2cc(F)c(F)c(F)c2F)[C@@H]3C)o1` [Compound 4, (R)-(8-methyl-3-(5-methylfuran-2-yl)-5,6-dihydro-[1,2,4]triazolo[4,3-a]pyrazin-7(8H)-yl)(2,3,4,5-tetrafluorophenyl)methanone], for which the “Exposure (% rPPB), bound drug fraction” value with plasma protein was 30%. In addition, the Ki at human NK-3 receptor [1] (setting [3]) was 52 nM; at human NK-3 receptor [1] (setting [4]) it was 52 nM; at human NK-2 receptor it was 30000 nM; at human NK-1 receptor, more than 30000 nM. Moreover, on human NK-3 receptor [2], the IC50 turned out to be 72 nM.

For the molecule `Cc1nc(-c2nnc3n2CCN(C(=O)c2ccc(F)cc2)[C@@H]3C)cs1` [Compound 2, (R)-(4-fluorophenyl)(8-methyl-3-(2-methylthiazol-4-yl)-5,6-dihydro-[1,2,4]triazolo[4,3-a]pyrazin-7(8H)-yl)methanone], the “Exposure (% rPPB), bound drug fraction” value in the data set with plasma protein is listed as 17%. The Ki is 100 nM on human NK-3 receptor [1] (setting [3]), 100 nM on human NK-3 receptor [1] (setting [4]), more than 30000 nM on human NK-2 receptor and more than 30000 nM on human NK-1 receptor. Moreover, the IC50 at human NK-3 receptor [2] was found to be 160 nM.

For the origin of these results see US9840508B2, “N-acyl-(3-substituted)-(8-methyl)-5,6-dihydro-[1,2,4]triazolo[4,3-a] pyrazines as selective NK-3 receptor antagonists, pharmaceutical composition, methods for use in NK-3 receptor-mediated disorders” (EUROSCREEN SA, priority 2013, dated 2017).
